Consider ten molecules from US20250353864A1, “INDAZOLE CONTAINING MACROCYCLES AND THEIR USE” (BLOSSOMHILL THERAPEUTICS, INC., priority 2022, published 2025).

Format in all cases: biochemical
One assay has as its target CLK4 (Homo sapiens (Human), UniProt Q9HAZ1). Description: Inhibition of CLK4 kinase activity evaluated at Nanosyn (ADP-Glo). The settings on record: ADP-Glo luminescence. The essentials: (§1)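 Percent inhibition derived from luminescent ADP detection (ADP-Glo), normalised to DMSO-only and enzyme-free wells. Reactions ran in HEPES pH 7.5 buffer with Mg2+, Triton X-100 and BSA, 1% DMSO, ATP-initiated, for an assay-specific time.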
For orientation: In ADP-Glo the light output rises with the ADP produced.

The target in another assay is CLK3 (Homo sapiens (Human), UniProt P49761). Description: Inhibition of CLK3 kinase activity evaluated at Nanosyn (ADP-Glo). Particulars: ADP-Glo luminescence. The essentials: as §1
The next assay deals with EGFR (D770_N771insNPG) (Homo sapiens (Human), UniProt P00533, INS770NPG). Description: HotSpot radiometric kinase assay, EGFR (D770_N771insNPG). The settings on record: 10 μM ATP, read-out: EGFR (Δ770_N771insNPG) IC50. The gist of the method:
(§2)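 IC50 values come from curve fits of ^33P incorporation captured on P81 filters after acid washing. Kinase reactions ran 120 min at room temperature with 10 μM ATP, added about 20 min after compound. Buffer was Hepes pH 7.5 containing Mg, DTT and 1% DMSO.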

For the next assay, the target named is CLK2 (Homo sapiens (Human), UniProt P49760). Description: Inhibition of CLK2 kinase activity evaluated at Nanosyn (ADP-Glo). The settings on record: ADP-Glo luminescence. The gist of the method:
as §1

The target in assay [1] is EGFR L858R/T790M/C797S mutant (Homo sapiens (Human), UniProt P00533, C797S/L858R/T790M). Description: HotSpot radiometric kinase assay, EGFR L858R/T790M/C797S mutant. The settings on record: 10 μM ATP. The gist of the method:
as §2

The target in another assay is EGFR WT (Homo sapiens (Human), UniProt P00533). Description: HotSpot radiometric kinase assay (Reaction Biology), EGFR WT. Particulars: 10 μM ATP. The gist of the method: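 Kinase, substrate and cofactors are mixed in 20 mM Hepes pH 7.5 with 10 mM MgCl2, 1 mM EGTA, 2 mM DTT and 1% DMSO. Compound is added, and about 20 min later ATP/33P-ATP (10 μM final) starts a 120-min room-temperature reaction, which is then spotted onto P81 paper.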

The target in another assay is EGFR L858R mutant (Homo sapiens (Human), UniProt P00533, L858R). Description: HotSpot radiometric kinase assay, EGFR L858R mutant. Particulars: 10 μM ATP. The gist of the method:
as §2

The next assay concerns the target EGFR L858R/T790M mutant (Homo sapiens (Human), UniProt P00533, L858R/T790M). Description: HotSpot radiometric kinase assay, EGFR L858R/T790M mutant. The settings on record: 10 μM ATP. The essentials:
as §2

The target in the next assay is CLK1 (Homo sapiens (Human), UniProt P49759). Description: Inhibition of CLK1 kinase activity evaluated at Nanosyn (ADP-Glo). Particulars: ADP-Glo luminescence. The essentials: as §1
For a further assay, the target named is EGFR Δ746-750 mutant (Homo sapiens (Human), UniProt P00533, DEL746-750). Description: HotSpot radiometric kinase assay, EGFR Δ746-750 mutant. The settings on record: 10 μM ATP. The gist of the method: as §2
Assay [2] concerns the target EGFR Δ746-750/C797S mutant (Homo sapiens (Human), UniProt P00533, C797S/DEL746-750). Description: HotSpot radiometric kinase assay, EGFR Δ746-750/C797S mutant. The settings on record: 10 μM ATP. The gist of the method:
as §2

Sequence of EGFR Δ746-750/C797S mutant (P00533 other isoform, or with tags, fused parts or gaps C797S/del 1-668/del 746-750 limits assumed): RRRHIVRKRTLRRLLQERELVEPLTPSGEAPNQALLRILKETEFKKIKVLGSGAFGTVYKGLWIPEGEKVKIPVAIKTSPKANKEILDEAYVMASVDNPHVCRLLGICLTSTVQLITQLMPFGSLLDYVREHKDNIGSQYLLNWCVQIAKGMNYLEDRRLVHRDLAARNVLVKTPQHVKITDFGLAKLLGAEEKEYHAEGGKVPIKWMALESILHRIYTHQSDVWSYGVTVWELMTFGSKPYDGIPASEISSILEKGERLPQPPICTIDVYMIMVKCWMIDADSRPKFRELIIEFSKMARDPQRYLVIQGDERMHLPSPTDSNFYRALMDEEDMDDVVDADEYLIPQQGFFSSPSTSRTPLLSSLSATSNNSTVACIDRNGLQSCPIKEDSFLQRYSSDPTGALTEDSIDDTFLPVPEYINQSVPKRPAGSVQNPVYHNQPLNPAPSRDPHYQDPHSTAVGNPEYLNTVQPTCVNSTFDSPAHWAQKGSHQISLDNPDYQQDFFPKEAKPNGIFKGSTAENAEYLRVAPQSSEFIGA
Sequence of CLK2 (P49760 whole entry): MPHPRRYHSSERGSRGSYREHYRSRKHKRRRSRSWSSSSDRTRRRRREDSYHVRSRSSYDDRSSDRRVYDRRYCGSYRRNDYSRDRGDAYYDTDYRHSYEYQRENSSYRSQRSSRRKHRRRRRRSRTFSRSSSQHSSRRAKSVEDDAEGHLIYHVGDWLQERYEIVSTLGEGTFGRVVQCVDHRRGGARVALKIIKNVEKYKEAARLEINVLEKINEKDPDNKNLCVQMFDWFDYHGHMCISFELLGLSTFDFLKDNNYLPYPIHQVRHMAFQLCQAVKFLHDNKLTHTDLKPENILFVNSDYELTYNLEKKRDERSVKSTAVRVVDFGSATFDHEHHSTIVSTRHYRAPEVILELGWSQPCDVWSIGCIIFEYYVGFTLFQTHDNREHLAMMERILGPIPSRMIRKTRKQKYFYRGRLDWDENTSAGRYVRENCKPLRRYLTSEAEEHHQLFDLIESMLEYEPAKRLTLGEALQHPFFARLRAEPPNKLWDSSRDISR
Sequence of EGFR WT (P00533 25-1210): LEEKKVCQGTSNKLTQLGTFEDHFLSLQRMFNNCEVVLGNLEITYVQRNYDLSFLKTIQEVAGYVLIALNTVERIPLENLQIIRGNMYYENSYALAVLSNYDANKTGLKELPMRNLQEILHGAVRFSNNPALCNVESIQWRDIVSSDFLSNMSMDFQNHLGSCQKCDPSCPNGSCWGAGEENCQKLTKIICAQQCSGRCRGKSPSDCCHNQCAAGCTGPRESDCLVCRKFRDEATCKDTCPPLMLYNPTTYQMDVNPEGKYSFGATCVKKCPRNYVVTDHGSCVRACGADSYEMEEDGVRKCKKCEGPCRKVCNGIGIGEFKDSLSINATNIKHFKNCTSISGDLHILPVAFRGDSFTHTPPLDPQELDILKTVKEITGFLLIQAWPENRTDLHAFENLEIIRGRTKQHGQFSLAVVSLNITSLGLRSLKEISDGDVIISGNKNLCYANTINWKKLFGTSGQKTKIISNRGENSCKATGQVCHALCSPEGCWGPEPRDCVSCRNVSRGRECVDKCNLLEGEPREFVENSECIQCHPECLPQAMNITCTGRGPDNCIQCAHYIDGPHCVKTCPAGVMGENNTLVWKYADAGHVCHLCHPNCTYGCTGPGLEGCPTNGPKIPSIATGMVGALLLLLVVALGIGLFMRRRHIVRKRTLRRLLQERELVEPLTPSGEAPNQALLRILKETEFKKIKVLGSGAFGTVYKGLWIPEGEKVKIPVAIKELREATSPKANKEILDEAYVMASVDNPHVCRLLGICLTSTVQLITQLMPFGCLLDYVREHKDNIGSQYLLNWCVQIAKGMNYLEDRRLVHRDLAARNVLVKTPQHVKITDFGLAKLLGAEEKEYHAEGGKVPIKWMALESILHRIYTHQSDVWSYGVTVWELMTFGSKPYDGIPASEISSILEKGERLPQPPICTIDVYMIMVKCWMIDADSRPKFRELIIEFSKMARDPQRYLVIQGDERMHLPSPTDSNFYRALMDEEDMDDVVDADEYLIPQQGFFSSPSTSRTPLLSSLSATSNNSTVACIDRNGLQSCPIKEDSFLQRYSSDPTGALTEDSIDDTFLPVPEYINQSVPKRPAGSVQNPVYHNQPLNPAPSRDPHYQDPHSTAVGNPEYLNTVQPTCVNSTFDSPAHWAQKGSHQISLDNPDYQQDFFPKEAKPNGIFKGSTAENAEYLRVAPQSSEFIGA
Sequence of EGFR Δ746-750 mutant (P00533 other isoform, or with tags, fused parts or gaps del 1-668/del 746-750 limits assumed): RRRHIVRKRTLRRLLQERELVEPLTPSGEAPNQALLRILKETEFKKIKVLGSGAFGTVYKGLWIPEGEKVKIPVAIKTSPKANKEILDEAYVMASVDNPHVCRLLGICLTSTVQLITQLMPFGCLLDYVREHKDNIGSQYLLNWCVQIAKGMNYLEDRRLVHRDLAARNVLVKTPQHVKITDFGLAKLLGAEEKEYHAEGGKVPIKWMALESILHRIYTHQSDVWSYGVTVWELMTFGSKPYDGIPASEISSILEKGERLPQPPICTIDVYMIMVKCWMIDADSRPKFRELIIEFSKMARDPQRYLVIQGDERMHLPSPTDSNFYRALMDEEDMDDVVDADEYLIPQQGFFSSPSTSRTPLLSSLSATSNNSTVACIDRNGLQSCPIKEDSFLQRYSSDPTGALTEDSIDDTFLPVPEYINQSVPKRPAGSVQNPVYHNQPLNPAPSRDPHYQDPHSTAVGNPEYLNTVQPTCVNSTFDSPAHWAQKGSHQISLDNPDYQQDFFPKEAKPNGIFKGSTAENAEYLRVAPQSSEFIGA
Sequence of EGFR (D770_N771insNPG) (P00533 other isoform, or with tags, fused parts or gaps del 1-668/ins NPG behind 770 limits assumed): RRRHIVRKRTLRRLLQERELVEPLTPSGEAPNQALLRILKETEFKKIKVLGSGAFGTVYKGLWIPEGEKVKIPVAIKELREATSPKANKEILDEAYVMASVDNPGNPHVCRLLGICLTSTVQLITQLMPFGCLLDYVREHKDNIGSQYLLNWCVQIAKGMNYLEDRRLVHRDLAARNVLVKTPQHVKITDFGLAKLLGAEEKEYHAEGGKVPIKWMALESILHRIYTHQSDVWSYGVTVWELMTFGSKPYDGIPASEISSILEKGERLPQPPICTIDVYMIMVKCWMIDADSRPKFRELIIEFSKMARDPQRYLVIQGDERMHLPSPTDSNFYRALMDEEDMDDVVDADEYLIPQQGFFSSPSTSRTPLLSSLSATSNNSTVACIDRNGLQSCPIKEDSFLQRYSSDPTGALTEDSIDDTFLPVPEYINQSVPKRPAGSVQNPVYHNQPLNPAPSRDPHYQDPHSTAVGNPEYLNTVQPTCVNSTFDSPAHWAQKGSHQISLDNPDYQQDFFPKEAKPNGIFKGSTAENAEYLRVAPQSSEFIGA
Sequence of EGFR L858R/T790M mutant (P00533 25-1210 T790M/L858R): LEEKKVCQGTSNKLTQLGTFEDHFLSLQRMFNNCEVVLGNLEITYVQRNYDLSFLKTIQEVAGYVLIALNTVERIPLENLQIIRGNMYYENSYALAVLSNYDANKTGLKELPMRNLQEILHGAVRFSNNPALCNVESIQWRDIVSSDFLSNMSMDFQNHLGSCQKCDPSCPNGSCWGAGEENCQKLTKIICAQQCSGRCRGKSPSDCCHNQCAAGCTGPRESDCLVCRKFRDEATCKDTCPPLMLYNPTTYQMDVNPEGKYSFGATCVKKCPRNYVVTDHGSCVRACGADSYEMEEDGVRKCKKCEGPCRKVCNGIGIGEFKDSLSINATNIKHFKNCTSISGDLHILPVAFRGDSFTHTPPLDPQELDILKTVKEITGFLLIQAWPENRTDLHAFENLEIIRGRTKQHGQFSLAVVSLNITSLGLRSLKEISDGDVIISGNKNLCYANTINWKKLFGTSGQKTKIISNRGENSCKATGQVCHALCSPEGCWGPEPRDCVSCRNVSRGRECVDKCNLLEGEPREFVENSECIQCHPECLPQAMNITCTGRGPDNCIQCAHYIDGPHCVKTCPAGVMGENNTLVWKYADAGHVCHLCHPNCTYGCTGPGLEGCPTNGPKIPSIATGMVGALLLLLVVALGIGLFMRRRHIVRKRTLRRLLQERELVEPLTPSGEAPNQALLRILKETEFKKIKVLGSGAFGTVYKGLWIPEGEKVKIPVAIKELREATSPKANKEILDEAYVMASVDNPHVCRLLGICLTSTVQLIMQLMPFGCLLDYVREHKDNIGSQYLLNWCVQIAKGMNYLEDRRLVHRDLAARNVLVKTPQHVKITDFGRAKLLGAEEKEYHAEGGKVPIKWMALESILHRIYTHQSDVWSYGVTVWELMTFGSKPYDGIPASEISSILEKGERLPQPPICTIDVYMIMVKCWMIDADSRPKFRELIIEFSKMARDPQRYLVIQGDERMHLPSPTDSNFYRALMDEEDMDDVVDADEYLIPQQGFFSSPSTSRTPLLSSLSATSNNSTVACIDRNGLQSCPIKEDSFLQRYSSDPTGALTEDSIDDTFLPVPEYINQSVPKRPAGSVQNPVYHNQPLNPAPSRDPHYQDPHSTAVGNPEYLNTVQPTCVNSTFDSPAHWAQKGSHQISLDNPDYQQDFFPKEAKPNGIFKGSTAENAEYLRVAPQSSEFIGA
Sequence of CLK3 (P49761 whole entry): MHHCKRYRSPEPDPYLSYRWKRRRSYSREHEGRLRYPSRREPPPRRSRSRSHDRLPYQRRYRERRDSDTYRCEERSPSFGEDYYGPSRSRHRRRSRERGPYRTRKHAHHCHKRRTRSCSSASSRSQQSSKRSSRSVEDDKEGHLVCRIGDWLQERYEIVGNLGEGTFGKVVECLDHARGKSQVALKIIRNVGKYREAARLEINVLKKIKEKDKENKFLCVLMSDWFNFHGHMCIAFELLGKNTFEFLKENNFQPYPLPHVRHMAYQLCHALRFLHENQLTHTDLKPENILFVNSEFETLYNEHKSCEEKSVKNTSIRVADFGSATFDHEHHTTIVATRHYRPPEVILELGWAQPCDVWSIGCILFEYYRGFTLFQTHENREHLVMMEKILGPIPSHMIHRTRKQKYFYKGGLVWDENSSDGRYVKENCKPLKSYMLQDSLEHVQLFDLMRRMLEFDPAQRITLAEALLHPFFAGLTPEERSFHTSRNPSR

For orientation: IC50 means the concentration that gives 50% inhibition. For the molecule `CC(C)Oc1nn(CCO)c2c1/C=C/c1n[nH]c3ccc(cc13)-c1cnn(C)c1OCC(CF)N(C)C2` (centres unmarked) [Example 226, 2-{(17E)-11-(fluoromethyl)-8,12-dimethyl-16-[(propan-2-yl)oxy]-2,8,10,11.12,13-hexahydro-14H-3,5-ethenotripyrazolo[3,4-f:3′,4′-j:4″,3″-n][1,4]oxazacyclopentadecin-14-yl}ethan-1-ol], the IC50 at CLK4 was 1.44 nM; at CLK3 it was 369 nM; at EGFR (D770_N771insNPG) it was 222 nM; at CLK2 it was 0.99 nM; in [1], 0.6 nM; against EGFR WT it was 121 nM. Further, the half-maximal inhibitory concentration (IC50) against EGFR L858R mutant was 50.7 nM; on EGFR L858R/T790M mutant, 1.19 nM; on CLK1 it was 0.87 nM; at EGFR Δ746-750 mutant, 8.98 nM; in assay [2], 6.43 nM.
In the case of `CCN1Cc2c(c(OC(C)C)nn2C[C@H](C)O)/C=C/c2n[nH]c3ccc(cc23)-c2cnn(C)c2O[C@H](C)C1` [Example 227, (2S)-1-{(10R,17E)-12-ethyl-8,10-dimethyl-16-[(propan-2-yl)oxy]-2,8,10,11,12,13-hexahydro-14H-3,5-ethenotripyrazolo[3,4-f:3′,4′-j:4″,3″- n][1,4]oxazacyclopentadecin-14-yl}propan-2-ol], the IC50 at CLK4 was 4.63 nM; at CLK3 it was 471 nM; at EGFR (D770_N771insNPG), 167 nM; at CLK2, 2.59 nM; in [1], 0.36 nM; against EGFR WT it was 251 nM. The IC50 turned out to be 60.1 nM at EGFR L858R mutant; 0.84 nM against EGFR L858R/T790M mutant; 4.9 nM on CLK1; 9.86 nM on EGFR Δ746-750 mutant; 6.82 nM in [2].
On to `CCOc1nn([C@@H](C)CO)c2c1/C=C/c1n[nH]c3cc(F)c(cc13)-c1cnn(C)c1OC[C@H](C)N(C(C)C)C2` [Example 228, (2S)-2-[(11S,17E)-16-ethoxy-19-fluoro-8,11-dimethyl-12-(propan-2-yl)-2,8,10,11,12,13-hexahydro-14H-3,5-ethenotripyrazolo[3,4-f:3′,4′-j:4″,3″- n][1,4]oxazacyclopentadecin-14-yl]propan-1-ol], for which the concentration for half-maximal inhibition (IC50) was 34 nM at CLK4; 1000 nM on CLK3; 481 nM on EGFR (D770_N771insNPG); 8.6 nM at CLK2; 10.6 nM in [1]; 52.7 nM on EGFR WT. The IC50 was found to be 25.2 nM against EGFR L858R mutant; 25.9 nM on EGFR L858R/T790M mutant; 21.9 nM at CLK1; 12.2 nM on EGFR Δ746-750 mutant; 44.4 nM in assay [2].
In the case of `CCOc1nn([C@@H](C)CO)c2c1/C=C/c1n[nH]c3cc(F)c(cc13)-c1cnn(C)c1O[C@H](C)CN(C(C)C)C2` [Example 229, (2S)-2-[(10R,17E)-16-ethoxy-19-fluoro-8,10-dimethyl-12-(propan-2-yl)-2,8,10,11,12,13-hexahydro-14H-3,5-ethenotripyrazolo[3,4-f:3′,4′-j:4″,3″- n][1,4]oxazacyclopentadecin-14-yl]propan-1-ol], the 50% inhibitory concentration (IC50) at CLK4 was found to be 68.5 nM; at CLK3, 1000 nM; at EGFR (D770_N771insNPG), 38.6 nM; on CLK2, 59.6 nM; in [1], 1.24 nM; on EGFR WT, 24.8 nM. Moreover, the IC50 was 7.1 nM on EGFR L858R mutant; 4.07 nM against EGFR L858R/T790M mutant; 131 nM on CLK1; 1.94 nM on EGFR Δ746-750 mutant; 4.05 nM in assay [2].
`Cc1c2c(nn1C)/C=C/c1n[nH]c3ccc(cc13)-c1cnn(C)c1O[C@@H](C)CN(C(C)C)C2` [Example 233, (10S,17E)-8,10,14,15-tetramethyl-12-(propan-2-yl)-2,10,11,12,13,15-hexahydro-8H-3,5-ethenotripyrazolo[4,3-f:3′,4′-j:4″,3″- n][1,4]oxazacyclopentadecine]: the IC50 on CLK4 is 0.89 nM; on CLK3, 403 nM; on EGFR (D770_N771insNPG), 256 nM; at CLK2, 0.43 nM; in [1] it was 1.61 nM; against EGFR WT, 151 nM. The IC50 was found to be 41.5 nM against EGFR L858R mutant; 1.32 nM against EGFR L858R/T790M mutant; 0.71 nM on CLK1; 10.7 nM against EGFR Δ746-750 mutant; 25 nM in assay [2].
Regarding `CCOc1nn(C)c2c1/C=C/c1n[nH]c3ccc(cc13)-c1cnn(C)c1O[C@@H]1CCN(C2)C1` [Example 236, (10R,18E)-17-ethoxy-8,15-dimethyl-2,8,11,12,14,15-hexahydro-10H-3,5-etheno-10,13-methanotripyrazolo[3,4-g:3′,4′-k:4″,3″- o][1,5]oxazacyclohexadecine], the IC50 turned out to be 1.03 nM at CLK4; 397 nM on CLK3; 68.9 nM at EGFR (D770_N771insNPG); 1.73 nM on CLK2; 1.06 nM in assay [1]; 26.8 nM on EGFR WT. The IC50 against EGFR L858R mutant turned out to be 12 nM; against EGFR L858R/T790M mutant, 0.8 nM; on CLK1, 0.66 nM; against EGFR Δ746-750 mutant it was 5.11 nM; in assay [2], 11.5 nM.
Consider `CCOc1nn(C)c2c1/C=C/c1n[nH]c3ccc(cc13)-c1cnn(C)c1OC1CN(C2)C1` [Example 238, (17E)-16-ethoxy-8,14-dimethyl-2,8,10,11,13,14-hexahydro-3,5-etheno-10,12-methanotripyrazolo[3,4-f:3′,4′-j:4″,3″-n][1,4]oxazacyclopentadecine], for which the IC50 at CLK4 came out at 1.07 nM; on CLK3 it was 1000 nM; at EGFR (D770_N771insNPG), 219 nM; at CLK2 it was 2.44 nM; in [1], 11.7 nM; against EGFR WT, 203 nM. The IC50 against EGFR L858R mutant is 73 nM; at EGFR L858R/T790M mutant it was 10.2 nM; on CLK1 it was 0.9 nM; against EGFR Δ746-750 mutant, 17.5 nM; in assay [2] it was 41.3 nM.
`CCOc1nccc2c1/C=C/c1n[nH]c3ccc(cc13)-c1cnn(C)c1O[C@@H](C)CN(C)C2` [Example 240, (10S,18E)-17-ethoxy-8,10,12-trimethyl-2,8,10,11,12,13-hexahydro-3,5-ethenodipyrazolo[3,4-j:4′,3′-n]pyrido[4,3-f][1,4]oxazacyclopentadecine]: the IC50 on CLK4 is 1.52 nM; at CLK3, 1000 nM; at EGFR (D770_N771insNPG), > 1000 nM; at CLK2, 12.5 nM; in assay [1], 10.5 nM; on EGFR WT, > 1000 nM. The IC50 on EGFR L858R mutant is 775 nM; at EGFR L858R/T790M mutant, 5.92 nM; on CLK1, 1.12 nM; against EGFR Δ746-750 mutant, 826 nM; in assay [2] it was 653 nM.
In the case of `CC(C)Oc1nn(CCO)c2c1/C=C/c1n[nH]c3ccc(cc13)-c1cnn(C3CC3)c1O[C@@H](C)CN(C)C2` [Example 246, 2-{(10S,17E)-8-cyclopropyl-10,12-dimethyl-16-[(propan-2-yl)oxy]-2,8,10,11,12,13-hexahydro-14H-3,5-ethenotripyrazolo[3,4-f:3′,4′-j:4″,3″-n][1,4]oxazacyclopentadecin-14-yl}ethan-1-ol], the 50% inhibitory concentration (IC50) worked out at 1.33 nM on CLK4; 386 nM at CLK3; 39.5 nM at EGFR (D770_N771insNPG); 1.36 nM on CLK2; 4.42 nM in [1]; 23.3 nM on EGFR WT. Further, the IC50 turned out to be 5.14 nM against EGFR L858R mutant; 1.71 nM at EGFR L858R/T790M mutant; 0.75 nM on CLK1; 8.71 nM against EGFR Δ746-750 mutant; 3.18 nM in assay [2].
`CC(C)Oc1nn(CCO)c2c1/C=C/c1n[nH]c3ccc(cc13)-c1cnn(C)c1O[C@@H](C)[C@H]1CCCN1C2` [Example 252, 2-[(8aR,9S,19E)-9,11-dimethyl-1-[(propan-2-yl)oxy]-7,8,8a,9,11,17-hexahydro-6H-14,16-ethenotripyrazolo[3,4-f:3′,4′-j:4″,3″-n]pyrrolo[2,1-c][1,4]oxazacyclopentadecin-3(4H)-yl]ethan-1-ol]: the IC50 at CLK4 amounted to 1.59 nM; at CLK3, 168 nM; on EGFR (D770_N771insNPG), 15.7 nM; at CLK2 it was 0.42 nM; in assay [1], 5.35 nM; at EGFR WT, 4.74 nM. Besides, the IC50 stood at 2.38 nM against EGFR L858R mutant; 1.91 nM on EGFR L858R/T790M mutant; 0.83 nM at CLK1; 1.31 nM on EGFR Δ746-750 mutant; 2.29 nM in assay [2].
